What was measured:
[1] = target: lactate dehydrogenase B (LDHB) (Homo sapiens, UniProt P07195); assay: NADH fluorometric LDH assay; type: biochemical
[2] = target: T1, lactate dehydrogenase A (LDHA) (Homo sapiens, UniProt P00338); assay: NADH fluorometric LDH assay; type: biochemical
CASTOR1 = target: T2, CASTOR1 (Homo sapiens, UniProt Q8WTX7); assay: equilibrium dialysis MS; type: binding; conditions: 150 mM ammonium acetate pH 7.4, 4 C, metabolite pool
T2 sequence (Q8WTX7 1-329): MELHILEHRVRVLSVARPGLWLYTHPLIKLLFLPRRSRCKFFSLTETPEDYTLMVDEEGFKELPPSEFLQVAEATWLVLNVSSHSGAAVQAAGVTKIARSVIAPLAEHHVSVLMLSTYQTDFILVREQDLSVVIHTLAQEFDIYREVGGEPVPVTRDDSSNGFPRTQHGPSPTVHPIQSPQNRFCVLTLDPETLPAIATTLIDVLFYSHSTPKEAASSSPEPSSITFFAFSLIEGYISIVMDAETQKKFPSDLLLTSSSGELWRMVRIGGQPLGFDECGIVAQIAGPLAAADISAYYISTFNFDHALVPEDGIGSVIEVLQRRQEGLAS

[3] = target: T1, lactate dehydrogenase A (LDHA); assay: biochemical

Sequence of lactate dehydrogenase B (LDHB) (P07195 2-334): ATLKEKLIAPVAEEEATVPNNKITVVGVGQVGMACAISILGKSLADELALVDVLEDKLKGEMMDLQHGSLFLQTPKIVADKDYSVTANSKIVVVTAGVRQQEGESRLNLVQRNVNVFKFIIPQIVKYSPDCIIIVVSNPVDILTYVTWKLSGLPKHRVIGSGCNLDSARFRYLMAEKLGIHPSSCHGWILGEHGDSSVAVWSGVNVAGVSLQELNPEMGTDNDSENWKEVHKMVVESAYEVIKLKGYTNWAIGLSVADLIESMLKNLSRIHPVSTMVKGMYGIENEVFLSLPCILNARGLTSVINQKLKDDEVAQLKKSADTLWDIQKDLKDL

Nc1ncnc2c1ncn2[C@@H]1O[C@H](COP(=O)(O)OP(=O)(O)O)[C@@H](O)[C@H]1O [ADP]
IC50 [1]: 14900 µM
IC50 [2]: 5060 µM

N=C(N)NCCC[C@H](N)C(=O)O [arginine]
equilibrium dialysis MS (MIDAS) (CASTOR1): CASTOR1 enriched arginine (Fig. 1C)

Nc1ncnc2c1ncn2[C@@H]1O[C@H](COP(=O)(O)O)[C@@H](O)[C@H]1O [AMP]
IC50 [1]: 51400 µM
IC50 [2]: 24400 µM

CC(=O)SCCNC(=O)CCNC(=O)[C@H](O)C(C)(C)COP(=O)(O)OP(=O)(O)OC[C@H]1O[C@@H](n2cnc3c(N)ncnc32)[C@H](O)[C@@H]1OP(=O)(O)O [C2:0-CoA]
IC50 [1]: > 100 µM

CCCCCCCC/C=C\CCCCCCCC(=O)SCCNC(=O)CCNC(=O)[C@H](O)C(C)(C)COP(=O)(O)OP(=O)(O)OC[C@H]1O[C@@H](n2cnc3c(N)ncnc32)[C@H](O)[C@@H]1OP(=O)(O)O [C18:1-CoA]
IC50 [1]: > 100 µM
IC50 [2]: ~1 µM
IC50 [3]: 0.8 µM

CCCCCCCCCCCC(=O)SCCNC(=O)CCNC(=O)[C@H](O)C(C)(C)COP(=O)(O)OP(=O)(O)OC[C@H]1O[C@@H](n2cnc3c(N)ncnc32)[C@H](O)[C@@H]1OP(=O)(O)O [C12:0-CoA]
IC50 [1]: > 100 µM
IC50 [2]: > 100 µM

CCCCCCCC(=O)SCCNC(=O)CCNC(=O)[C@H](O)C(C)(C)COP(=O)(O)OP(=O)(O)OC[C@H]1O[C@@H](n2cnc3c(N)ncnc32)[C@H](O)[C@@H]1OP(=O)(O)O [C8:0-CoA]
IC50 [1]: > 100 µM

CCCCCCCCCCCCCCCCCCCC(=O)SCCNC(=O)CCNC(=O)[C@H](O)C(C)(C)COP(=O)(O)OP(=O)(O)OC[C@H]1O[C@@H](n2cnc3c(N)ncnc32)[C@H](O)[C@@H]1OP(=O)(O)O [C20:0-CoA]
IC50 [1]: > 100 µM
IC50 [3]: 1.01 µM

CCCCCCCCCCCCCCCC(=O)SCCNC(=O)CCNC(=O)[C@H](O)C(C)(C)COP(=O)(O)OP(=O)(O)OC[C@H]1O[C@@H](n2cnc3c(N)ncnc32)[C@H](O)[C@@H]1OP(=O)(O)O [C16:0-CoA]
IC50 [1]: > 100 µM
IC50 [2]: ~1 µM
IC50 [3]: 1.54 µM

CCCC(=O)SCCNC(=O)CCNC(=O)[C@H](O)C(C)(C)COP(=O)(O)OP(=O)(O)OC[C@H]1O[C@@H](n2cnc3c(N)ncnc32)[C@H](O)[C@@H]1OP(=O)(O)O [C4:0-CoA]
IC50 [1]: > 100 µM

Source: article doi:10.1101/2021.08.28.458030v1 (biorxiv, 2021)
